How the values were obtained:
[1] = DRUGMATRIX: GABAA, Chloride Channel, TBOB radioligand binding (ligand: [3H] TBOB); format: cell membranes, Rattus norvegicus, Wistar, Cerebral cortex, Membrane; conditions: Not Active = under 50% inhibition at 10 µM
[2] = DRUGMATRIX: Interleukin IL-1 radioligand binding (ligand: [125I] interleukin 1beta); format: cell membranes, Membrane; conditions: nih3t3; Not Active = under 50% inhibition at 10 µM
[3] = biological target: Aldo-keto reductase family 1 member B1 (Rattus norvegicus, UniProt P07943); format: tissue-based, Lens of camera-type eye;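 note: inhibition of aldose reductase enzyme activity, measured with DL-glyceraldehyde as the substrate; in other assays of this panel Not Active means under 50% inhibition at 10 µM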
[4] = biological target: T1, 5-hydroxytryptamine receptor 1A (Rattus norvegicus, UniProt P19327); format: cell membranes, CHO-K1, Membrane; conditions: for Ki: read-out: Ki; for all read-outs here: in other assays of this panel Not Active means under 50% inhibition at 10 µM
T1 sequence (P19327 whole entry): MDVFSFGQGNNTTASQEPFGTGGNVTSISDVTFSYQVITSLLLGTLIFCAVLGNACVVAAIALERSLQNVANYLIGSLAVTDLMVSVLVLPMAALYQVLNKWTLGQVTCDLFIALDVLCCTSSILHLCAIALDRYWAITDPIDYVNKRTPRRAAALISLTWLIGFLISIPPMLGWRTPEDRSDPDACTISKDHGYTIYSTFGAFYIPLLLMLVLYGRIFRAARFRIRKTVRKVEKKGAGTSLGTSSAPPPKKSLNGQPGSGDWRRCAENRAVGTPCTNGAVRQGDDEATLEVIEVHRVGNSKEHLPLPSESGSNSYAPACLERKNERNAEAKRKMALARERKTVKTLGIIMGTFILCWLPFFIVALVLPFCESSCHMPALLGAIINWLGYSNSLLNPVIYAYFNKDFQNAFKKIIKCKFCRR

[5] = DRUGMATRIX: Phosphodiesterase PDE3 enzyme inhibition (substrate: [3H]cAMP + cAMP); format: tissue-based, Homo sapiens; conditions: platelet; Not Active = under 50% inhibition at 10 µM
[6] = biological target: Melanocortin receptor 4 (Homo sapiens, UniProt P32245); format: cell membranes, Membrane; conditions: hek293; note: in other assays of this panel Not Active means under 50% inhibition at 10 µM
Chain of Melanocortin receptor 4 (P32245 whole entry): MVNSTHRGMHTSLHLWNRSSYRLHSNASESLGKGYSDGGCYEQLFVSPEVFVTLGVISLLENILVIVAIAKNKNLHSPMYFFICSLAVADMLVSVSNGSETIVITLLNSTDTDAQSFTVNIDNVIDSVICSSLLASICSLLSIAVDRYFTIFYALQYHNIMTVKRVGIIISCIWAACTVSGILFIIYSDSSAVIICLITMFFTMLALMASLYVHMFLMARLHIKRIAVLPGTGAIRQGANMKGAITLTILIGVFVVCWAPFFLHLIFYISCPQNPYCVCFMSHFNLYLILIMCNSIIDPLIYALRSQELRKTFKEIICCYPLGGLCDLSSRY

[7] = biological target: T2, Nitric oxide synthase, inducible (Mus musculus, UniProt P29477); design: species or system Escherichia coli;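 note: inhibition of iNOS enzyme activity measured with L-arginine as substrate; in other assays of this panel Not Active means under 50% inhibition at 10 µM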
T2 sequence (P29477 whole entry): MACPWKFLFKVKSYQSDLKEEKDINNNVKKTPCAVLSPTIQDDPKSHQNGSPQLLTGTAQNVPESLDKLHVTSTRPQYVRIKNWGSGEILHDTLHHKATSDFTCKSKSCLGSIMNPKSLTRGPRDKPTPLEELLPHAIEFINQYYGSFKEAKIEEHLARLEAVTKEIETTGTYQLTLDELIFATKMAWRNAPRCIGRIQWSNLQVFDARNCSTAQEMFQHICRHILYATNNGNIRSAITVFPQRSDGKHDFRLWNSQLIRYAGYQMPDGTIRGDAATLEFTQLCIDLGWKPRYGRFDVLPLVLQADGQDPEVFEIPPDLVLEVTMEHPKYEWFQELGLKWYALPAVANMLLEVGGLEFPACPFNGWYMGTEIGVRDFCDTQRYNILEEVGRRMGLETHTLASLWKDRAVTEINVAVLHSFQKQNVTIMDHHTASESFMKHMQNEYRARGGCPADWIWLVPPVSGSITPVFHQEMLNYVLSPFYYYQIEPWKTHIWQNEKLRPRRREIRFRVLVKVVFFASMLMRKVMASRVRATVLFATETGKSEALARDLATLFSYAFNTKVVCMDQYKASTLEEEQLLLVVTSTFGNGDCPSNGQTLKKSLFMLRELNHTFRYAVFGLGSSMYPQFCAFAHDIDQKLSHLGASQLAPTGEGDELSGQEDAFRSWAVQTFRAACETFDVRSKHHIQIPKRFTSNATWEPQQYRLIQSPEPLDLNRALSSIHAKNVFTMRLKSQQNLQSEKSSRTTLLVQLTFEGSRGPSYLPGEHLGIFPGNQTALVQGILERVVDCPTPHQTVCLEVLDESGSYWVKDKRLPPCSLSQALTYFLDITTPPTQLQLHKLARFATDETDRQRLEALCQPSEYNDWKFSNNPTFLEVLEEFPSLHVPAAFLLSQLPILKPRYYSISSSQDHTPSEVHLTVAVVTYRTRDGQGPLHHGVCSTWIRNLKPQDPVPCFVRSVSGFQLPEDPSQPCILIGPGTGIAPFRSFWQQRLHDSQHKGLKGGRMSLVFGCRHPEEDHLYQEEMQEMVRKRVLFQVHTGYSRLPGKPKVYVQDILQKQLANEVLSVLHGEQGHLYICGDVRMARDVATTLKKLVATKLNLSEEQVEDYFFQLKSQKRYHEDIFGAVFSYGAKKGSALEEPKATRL

[8] = biological target: Vascular endothelial growth factor receptor 1 (Homo sapiens, UniProt P17948); format: cell-based; conditions: huvec; note: in other assays of this panel Not Active means under 50% inhibition at 10 µM
Chain of Vascular endothelial growth factor receptor 1 (P17948 whole entry): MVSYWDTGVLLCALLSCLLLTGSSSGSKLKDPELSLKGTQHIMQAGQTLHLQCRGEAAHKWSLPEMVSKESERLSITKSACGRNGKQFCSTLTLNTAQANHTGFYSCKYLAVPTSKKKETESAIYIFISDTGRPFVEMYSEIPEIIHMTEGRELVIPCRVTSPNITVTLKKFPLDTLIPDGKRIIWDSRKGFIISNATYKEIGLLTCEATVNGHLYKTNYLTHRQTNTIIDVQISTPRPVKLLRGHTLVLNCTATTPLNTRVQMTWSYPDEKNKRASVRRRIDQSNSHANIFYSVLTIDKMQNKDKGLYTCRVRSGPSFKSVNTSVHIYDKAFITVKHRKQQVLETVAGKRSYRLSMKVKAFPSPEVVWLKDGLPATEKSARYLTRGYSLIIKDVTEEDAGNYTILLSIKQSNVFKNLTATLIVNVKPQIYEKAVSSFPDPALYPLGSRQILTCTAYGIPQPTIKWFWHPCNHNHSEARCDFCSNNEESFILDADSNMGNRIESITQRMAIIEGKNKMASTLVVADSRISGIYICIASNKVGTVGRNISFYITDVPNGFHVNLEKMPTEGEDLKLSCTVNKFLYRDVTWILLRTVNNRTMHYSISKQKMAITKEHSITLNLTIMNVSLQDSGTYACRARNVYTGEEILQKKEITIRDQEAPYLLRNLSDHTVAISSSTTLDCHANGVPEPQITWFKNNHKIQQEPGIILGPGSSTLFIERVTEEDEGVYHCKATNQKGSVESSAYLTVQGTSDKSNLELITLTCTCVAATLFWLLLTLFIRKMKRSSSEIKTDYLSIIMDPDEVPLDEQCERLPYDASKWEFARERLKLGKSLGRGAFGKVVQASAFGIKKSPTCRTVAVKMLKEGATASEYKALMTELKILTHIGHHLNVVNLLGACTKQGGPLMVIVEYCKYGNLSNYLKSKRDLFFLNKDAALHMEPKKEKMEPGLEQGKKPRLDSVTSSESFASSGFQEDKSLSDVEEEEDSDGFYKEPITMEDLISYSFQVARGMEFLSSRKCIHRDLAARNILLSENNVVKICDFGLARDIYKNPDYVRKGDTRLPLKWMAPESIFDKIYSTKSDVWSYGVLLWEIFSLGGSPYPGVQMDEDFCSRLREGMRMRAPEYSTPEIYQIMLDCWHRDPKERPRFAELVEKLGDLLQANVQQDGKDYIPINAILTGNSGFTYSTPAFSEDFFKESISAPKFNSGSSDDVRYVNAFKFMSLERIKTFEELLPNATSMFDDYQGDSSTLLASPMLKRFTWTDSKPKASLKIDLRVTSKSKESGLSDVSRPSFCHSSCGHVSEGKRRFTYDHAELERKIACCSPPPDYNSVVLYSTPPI

[9] = biological target: T3, Alpha-2A adrenergic receptor (Homo sapiens, UniProt P08913); format: cell membranes, Sf9, Membrane; note: in other assays of this panel Not Active means under 50% inhibition at 10 µM
T3 sequence (P08913 whole entry): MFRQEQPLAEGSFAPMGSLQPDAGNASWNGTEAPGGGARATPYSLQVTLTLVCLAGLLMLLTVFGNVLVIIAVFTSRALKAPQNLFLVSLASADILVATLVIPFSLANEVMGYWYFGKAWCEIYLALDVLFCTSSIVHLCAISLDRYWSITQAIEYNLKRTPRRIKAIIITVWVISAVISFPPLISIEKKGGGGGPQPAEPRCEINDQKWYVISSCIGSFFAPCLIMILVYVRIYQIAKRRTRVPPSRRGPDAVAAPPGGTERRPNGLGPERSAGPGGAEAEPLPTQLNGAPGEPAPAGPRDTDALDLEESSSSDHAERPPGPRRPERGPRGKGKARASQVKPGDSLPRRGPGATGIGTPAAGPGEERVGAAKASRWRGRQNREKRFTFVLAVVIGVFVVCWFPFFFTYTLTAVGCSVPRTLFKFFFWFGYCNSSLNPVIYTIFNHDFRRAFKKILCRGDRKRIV

[10] = DRUGMATRIX: Potassium Channel [KATP] radioligand binding (ligand: [3H] Glyburide); format: cell membranes, Membrane; conditions: hit-t15; Not Active = under 50% inhibition at 10 µM
[11] = biological target: T4, Cathepsin G (Homo sapiens, UniProt P08311); format: tissue-based; conditions: neutrophil
T4 sequence (P08311 whole entry): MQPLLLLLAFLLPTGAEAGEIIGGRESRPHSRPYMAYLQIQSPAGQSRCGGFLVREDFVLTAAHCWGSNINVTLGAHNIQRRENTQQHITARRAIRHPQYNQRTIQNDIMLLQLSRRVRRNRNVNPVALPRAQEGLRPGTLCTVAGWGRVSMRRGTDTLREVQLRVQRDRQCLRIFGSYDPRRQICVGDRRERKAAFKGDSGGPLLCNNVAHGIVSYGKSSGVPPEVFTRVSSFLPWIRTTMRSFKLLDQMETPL

SMILES	IC50 [1]	Ki [1]	IC50 [2]	Ki [2]	IC50 [3]	IC50 ([4]; cho-k1)	IC50 [5]	Ki [5]	IC50 [6]	IC50 [7]	IC50 [8]	IC50 ([9]; sf9)	IC50 [10]	Ki [10]	IC50 [11]	IC50 ([4]; read-out: IC50)	Ki [4]	IC50 ([9]; read-out: IC50)
CCOC(=O)[C@H](CCc1ccccc1)N[C@@H](C)C(=O)N1[C@H](C(=O)O)C[C@@H]2CCC[C@@H]21	Not Active	Not Active	Not Active	Not Active	Not Active	Not Active	Not Active	Not Active	Not Active	Not Active	Not Active	Not Active	Not Active	Not Active	Not Active			
CC(C)(C)NC(=O)[C@@H]1CN(Cc2cccnc2)CCN1C[C@@H](O)C[C@@H](Cc1ccccc1)C(=O)N[C@H]1c2ccccc2C[C@H]1O.O	Not Active	Not Active	Not Active	Not Active	Not Active	Not Active	Not Active	Not Active	Not Active	Not Active	Not Active	Not Active	Not Active	Not Active	Not Active			
CC1(C)[C@H]2CC[C@]1(C)C(=O)C2 [(-)-CAMPHOR]	Not Active	Not Active	Not Active	Not Active	Not Active	Not Active	Not Active	Not Active	Not Active	Not Active	Not Active	Not Active	Not Active	Not Active	Not Active			
CC(C)(C)NCC(O)c1ccc(O)c(CO)c1 (centres undefined) [ALBUTEROL]	Not Active	Not Active	Not Active	Not Active	Not Active	Not Active	Not Active	Not Active	Not Active	Not Active	Not Active	Not Active	Not Active	Not Active	Not Active			
COc1ccc(CCN2CCC(Nc3nc4ccccc4n3Cc3ccc(F)cc3)CC2)cc1 [ASTEMIZOLE]					Not Active					Not Active	Not Active				Not Active	0.767 µM	0.438 µM	
CN(C)CCCN1c2ccccc2CCc2ccc(Cl)cc21 [CLOMIPRAMINE]					Not Active	Not Active			Not Active	Not Active	Not Active				Not Active			1.41 µM
Clc1ccccc1C(c1ccccc1)(c1ccccc1)n1ccnc1 [CLOTRIMAZOLE]					Not Active				Not Active	Not Active	Not Active				Not Active	17.7 µM	10.1 µM	
O=C(CCCN1CCC(O)(c2ccc(Cl)cc2)CC1)c1ccc(F)cc1 [HALOPERIDOL]					Not Active	Not Active			Not Active	Not Active	Not Active				Not Active			
NCCCC[C@H](N[C@@H](CCc1ccccc1)C(=O)O)C(=O)N1CCC[C@H]1C(=O)O [LISINOPRIL ANHYDROUS]	Not Active	Not Active	Not Active	Not Active	Not Active	Not Active	Not Active	Not Active	Not Active	Not Active	Not Active	Not Active			Not Active			
CN1CCN2c3ccccc3Cc3ccccc3C2C1 (centres undefined) [MIANSERIN]					Not Active				Not Active	Not Active	Not Active				Not Active	0.872 µM	0.498 µM	
CC(C)(O)c1ccccc1CC[C@@H](SCC1(CC(=O)O)CC1)c1cccc(/C=C/c2ccc3ccc(Cl)cc3n2)c1 [MONTELUKAST]					Not Active	Not Active			Not Active	Not Active	Not Active				Not Active			
CSc1ccc2c(c1)N(CCC1CCCCN1C)c1ccccc1S2 (centres undefined) [THIORIDAZINE]					Not Active				Not Active	Not Active	Not Active				Not Active	0.06 µM	0.034 µM	
COc1cccc(C2(O)CCCCC2CN(C)C)c1 (centres undefined) [TRAMADOL]					Not Active	Not Active			Not Active	Not Active	Not Active	Not Active			Not Active			
COC(=O)[C@@H]1[C@H]2C[C@H]3c4[nH]c5ccccc5c4CCN3C[C@@H]2CC[C@@H]1O [YOHIMBINE]	Not Active	Not Active	Not Active	Not Active	Not Active		Not Active	Not Active	Not Active	Not Active	Not Active		Not Active	Not Active	Not Active			
